Values of other authors as cited in US9400249B2, “Detection of biopolymer interactions, cancer cells, and pathogens using split-supercharged GFP” (Colorado State University Research Foundation, priority 2012, dated 2016).

How the values were obtained:
[1] = target: Head and neck cancer; settings: Targeted cell type: Head and neck cancer; read-out: Approximate affinity (Kd in nM)
[2] = target: Hepatocellular carcinoma; settings: Targeted cell type: Hepatocellular carcinoma; read-out: Approximate affinity (Kd in nM)
[3] = target: Breast cancer, Neuroblastoma; settings: Targeted cell type: Breast cancer, read-out: Approximate affinity (Kd in nM)
[4] = target: Cholangiocarcinoma; settings: Targeted cell type: Cholangiocarcinoma; read-out: Approximate affinity (Kd in nM)
[5] = target: Osteosarcoma; settings: Targeted cell type: Osteosarcoma; read-out: Approximate affinity (Kd in nM)
[6] = system: Prostate cancer
[7] = system: PC-3 prostate cancer cells; settings: previously reported

TSPLNIHNGQKL [cell targeting peptide, targeted cell type head and neck cancer]
Kd [1]: ~1000 nM

AGKGTPSLETTP [cell targeting peptide, targeted cell type hepatocellular carcinoma]
Kd [2]: ~50 nM

VPWMEPAYQRFL [cell targeting peptide, targeted cell type breast cancer, neuroblastoma]
Kd [3]: 50000 to 80000 nM

TPVLETPKLLLW [cell targeting peptide, targeted cell type cholangiocarcinoma]
Kd [4]: ~500 nM

ASGALSPSRLDT [cell targeting peptide, targeted cell type osteosarcoma]
Kd [5]: ~2000 nM

FRPNRAQDYNTN
binding to PC-3 prostate cancer cells ([6]; PC-3 prostate cancer cells, previously reported): potently binds
Kd ([6]; Targeted cell type: Prostate cancer, read-out: Approximate affinity (Kd in nM)): ~180 nM
penetration of PC-3 prostate cancer cells [7]: does not appreciably penetrate
